# According to ChEMBL document CHEMBL2440045, “The synthesis and anticancer activity of analogs of the indole phytoalexins brassinin, 1-methoxyspirobrassinol methyl ether and cyclobrassinin” (Bioorg Med Chem, 2013):
# Test system: Jurkat
# Experiment: Antiproliferative activity against human Jurkat cells assessed as cell viability after 72 hrs by MTT assay
# Type: functional, cell-based
# Conditions: not given
row,IC50,SMILES
1,7 µM,CO[C@@H]1N(C(=O)OC(C)(C)C)c2ccccc2[C@@]12CN=C(Nc1ccc(Cl)cc1)S2 (racemic)
2,8 µM,CO[C@H]1N(C(=O)OC(C)(C)C)c2ccccc2[C@@]12CN=C(Nc1ccc(Br)cc1)S2 (racemic)
3,15 µM,CO[C@@H]1N(C(=O)OC(C)(C)C)c2ccccc2[C@@]12CN=C(Nc1ccc(F)cc1)S2 (racemic)
4,9 µM,CO[C@@H]1N(C(=O)OC(C)(C)C)c2ccccc2[C@@]12CN=C(Nc1ccc(C)cc1)S2 (racemic)

# More lines, now with the values behind:
row,SMILES,IC50
1,CO[C@@H]1N(C(=O)OC(C)(C)C)c2ccccc2[C@@]12CN=C(SC)S2 (racemic),43.4 µM
2,Fc1ccc(NC2=NCc3c([nH]c4ccccc34)S2)cc1,8 µM
3,CC(C)(C)OC(=O)n1cc(CNC(=S)N2CCCCC2)c2ccccc21,37.6 µM
4,Cc1ccc(NC(=S)NCc2cn(C(=O)OC(C)(C)C)c3ccccc23)cc1,20 µM

# Test system: HeLa
# Experiment: Antiproliferative activity against human HeLa cells assessed as cell viability after 72 hrs by MTT assay
# Type: functional, cell-based
# Conditions: not given
row,IC50,SMILES
1,10 µM,CO[C@@H]1N(C(=O)OC(C)(C)C)c2ccccc2[C@@]12CN=C(Nc1ccc(Cl)cc1)S2 (racemic)
2,28 µM,CO[C@H]1N(C(=O)OC(C)(C)C)c2ccccc2[C@@]12CN=C(Nc1ccc(Br)cc1)S2 (racemic)
3,27.5 µM,CO[C@@H]1N(C(=O)OC(C)(C)C)c2ccccc2[C@@]12CN=C(Nc1ccc(F)cc1)S2 (racemic)
4,23 µM,CO[C@@H]1N(C(=O)OC(C)(C)C)c2ccccc2[C@@]12CN=C(Nc1ccc(C)cc1)S2 (racemic)

# Further lines, the compound ahead of its results:
row,SMILES,IC50
1,CO[C@@H]1N(C(=O)OC(C)(C)C)c2ccccc2[C@@]12CN=C(SC)S2 (racemic),77.6 µM
2,Fc1ccc(NC2=NCc3c([nH]c4ccccc34)S2)cc1,21.7 µM
3,CC(C)(C)OC(=O)n1cc(CNC(=S)N2CCCCC2)c2ccccc21,36.8 µM
4,Cc1ccc(NC(=S)NCc2cn(C(=O)OC(C)(C)C)c3ccccc23)cc1,29 µM

# Test system: A549
# Experiment: Antiproliferative activity against human A549 cells assessed as cell viability after 72 hrs by MTT assay
# Type: functional, cell-based
# Conditions: A549, 72 h
row,IC50,SMILES
1,16.5 µM,CO[C@@H]1N(C(=O)OC(C)(C)C)c2ccccc2[C@@]12CN=C(Nc1ccc(Cl)cc1)S2 (racemic)
2,33 µM,CO[C@H]1N(C(=O)OC(C)(C)C)c2ccccc2[C@@]12CN=C(Nc1ccc(Br)cc1)S2 (racemic)
3,34 µM,CO[C@@H]1N(C(=O)OC(C)(C)C)c2ccccc2[C@@]12CN=C(Nc1ccc(F)cc1)S2 (racemic)
4,30.5 µM,CO[C@@H]1N(C(=O)OC(C)(C)C)c2ccccc2[C@@]12CN=C(Nc1ccc(C)cc1)S2 (racemic)

# Continued, compound first:
row,SMILES,IC50
1,CO[C@@H]1N(C(=O)OC(C)(C)C)c2ccccc2[C@@]12CN=C(SC)S2 (racemic),96.3 µM
2,Fc1ccc(NC2=NCc3c([nH]c4ccccc34)S2)cc1,29 µM
3,CC(C)(C)OC(=O)n1cc(CNC(=S)N2CCCCC2)c2ccccc21,60.1 µM
4,Cc1ccc(NC(=S)NCc2cn(C(=O)OC(C)(C)C)c3ccccc23)cc1,31.3 µM

# Test system: MCF7
# Experiment: Antiproliferative activity against human MCF7 cells assessed as cell viability after 72 hrs by MTT assay
# Type: functional, cell-based
# Conditions: MCF7, 72 h
row,IC50,SMILES
1,16 µM,CO[C@@H]1N(C(=O)OC(C)(C)C)c2ccccc2[C@@]12CN=C(Nc1ccc(Cl)cc1)S2 (racemic)
2,29.5 µM,CO[C@H]1N(C(=O)OC(C)(C)C)c2ccccc2[C@@]12CN=C(Nc1ccc(Br)cc1)S2 (racemic)
3,30.5 µM,CO[C@@H]1N(C(=O)OC(C)(C)C)c2ccccc2[C@@]12CN=C(Nc1ccc(F)cc1)S2 (racemic)
4,31.5 µM,CO[C@@H]1N(C(=O)OC(C)(C)C)c2ccccc2[C@@]12CN=C(Nc1ccc(C)cc1)S2 (racemic)

# More lines, now with the values behind:
row,SMILES,IC50
1,CO[C@@H]1N(C(=O)OC(C)(C)C)c2ccccc2[C@@]12CN=C(SC)S2 (racemic),100 µM
2,Fc1ccc(NC2=NCc3c([nH]c4ccccc34)S2)cc1,33.8 µM
3,CC(C)(C)OC(=O)n1cc(CNC(=S)N2CCCCC2)c2ccccc21,> 100 µM
4,Cc1ccc(NC(=S)NCc2cn(C(=O)OC(C)(C)C)c3ccccc23)cc1,30 µM

# Test system: A549
# Experiment: Selectivity index, ratio of IC50 for HUVEC to IC50 for human A549 cells
# Conditions: not given
row,SMILES,Ratio IC50
1,COc1cc([C@@H]2c3cc4c(cc3[C@@H](O[C@@H]3O[C@@H]5CO[C@@H](C)O[C@H]5[C@H](O)[C@H]3O)[C@H]3COC(=O)[C@H]23)OCO4)cc(OC)c1O [ETOPOSIDE],0.09
2,Fc1ccc(NC2=NCc3c([nH]c4ccccc34)S2)cc1,1.4

# Test system: MDA-MB-231
# Experiment: Antiproliferative activity against human MDA-MB-231 cells assessed as cell viability after 72 hrs by MTT assay
# Type: functional, cell-based
# Conditions: MDA-MB-231, 72 h
row,IC50,SMILES
1,20.5 µM,CO[C@@H]1N(C(=O)OC(C)(C)C)c2ccccc2[C@@]12CN=C(Nc1ccc(Cl)cc1)S2 (racemic)
2,31.5 µM,CO[C@H]1N(C(=O)OC(C)(C)C)c2ccccc2[C@@]12CN=C(Nc1ccc(Br)cc1)S2 (racemic)
3,32.5 µM,CO[C@@H]1N(C(=O)OC(C)(C)C)c2ccccc2[C@@]12CN=C(Nc1ccc(F)cc1)S2 (racemic)
4,35.5 µM,CO[C@@H]1N(C(=O)OC(C)(C)C)c2ccccc2[C@@]12CN=C(Nc1ccc(C)cc1)S2 (racemic)

# More lines, now with the values behind:
row,SMILES,IC50
1,CO[C@@H]1N(C(=O)OC(C)(C)C)c2ccccc2[C@@]12CN=C(SC)S2 (racemic),97.7 µM
2,Fc1ccc(NC2=NCc3c([nH]c4ccccc34)S2)cc1,8.9 µM
3,CC(C)(C)OC(=O)n1cc(CNC(=S)N2CCCCC2)c2ccccc21,> 100 µM
4,Cc1ccc(NC(=S)NCc2cn(C(=O)OC(C)(C)C)c3ccccc23)cc1,37.4 µM

# Test system: not listed separately
# Experiment: Selectivity index, ratio of IC50 for HUVEC to IC50 for human MDA-MB-231 cells
# Conditions: not given
row,SMILES,Ratio IC50
1,COc1cc([C@@H]2c3cc4c(cc3[C@@H](O[C@@H]3O[C@@H]5CO[C@@H](C)O[C@H]5[C@H](O)[C@H]3O)[C@H]3COC(=O)[C@H]23)OCO4)cc(OC)c1O [ETOPOSIDE],0.06
2,Fc1ccc(NC2=NCc3c([nH]c4ccccc34)S2)cc1,4.7

# Test system: MCF7
# Experiment: Selectivity index, ratio of IC50 for HUVEC to IC50 for human MCF7 cells
# Conditions: not given
row,SMILES,Ratio IC50
1,COc1ccc(/C=C\c2cc(OC)c(OC)c(OC)c2)cc1O [COMBRETASTATIN A4],2
2,COc1cc([C@@H]2c3cc4c(cc3[C@@H](O[C@@H]3O[C@@H]5CO[C@@H](C)O[C@H]5[C@H](O)[C@H]3O)[C@H]3COC(=O)[C@H]23)OCO4)cc(OC)c1O [ETOPOSIDE],0.11
3,Fc1ccc(NC2=NCc3c([nH]c4ccccc34)S2)cc1,1.2

# Test system: CCRF-CEM
# Experiment: Antiproliferative activity against human CCRF-CEM cells assessed as cell viability after 72 hrs by MTT assay
# Type: functional, cell-based
# Conditions: not given
row,IC50,SMILES
1,19 µM,CO[C@@H]1N(C(=O)OC(C)(C)C)c2ccccc2[C@@]12CN=C(Nc1ccc(Cl)cc1)S2 (racemic)
2,5 µM,CO[C@H]1N(C(=O)OC(C)(C)C)c2ccccc2[C@@]12CN=C(Nc1ccc(Br)cc1)S2 (racemic)
3,14.5 µM,CO[C@@H]1N(C(=O)OC(C)(C)C)c2ccccc2[C@@]12CN=C(Nc1ccc(F)cc1)S2 (racemic)
4,19 µM,CO[C@@H]1N(C(=O)OC(C)(C)C)c2ccccc2[C@@]12CN=C(Nc1ccc(C)cc1)S2 (racemic)

# The remaining lines, values behind:
row,SMILES,IC50
1,CO[C@@H]1N(C(=O)OC(C)(C)C)c2ccccc2[C@@]12CN=C(SC)S2 (racemic),41.9 µM
2,Fc1ccc(NC2=NCc3c([nH]c4ccccc34)S2)cc1,1.7 µM
3,CC(C)(C)OC(=O)n1cc(CNC(=S)N2CCCCC2)c2ccccc21,37 µM
4,Cc1ccc(NC(=S)NCc2cn(C(=O)OC(C)(C)C)c3ccccc23)cc1,16 µM

# Test system: Jurkat
# Experiment: Selectivity index, ratio of IC50 for HUVEC to IC50 for human Jurkat cells
# Conditions: not given
row,SMILES,Ratio IC50
1,COc1cc([C@@H]2c3cc4c(cc3[C@@H](O[C@@H]3O[C@@H]5CO[C@@H](C)O[C@H]5[C@H](O)[C@H]3O)[C@H]3COC(=O)[C@H]23)OCO4)cc(OC)c1O [ETOPOSIDE],1.04
2,Fc1ccc(NC2=NCc3c([nH]c4ccccc34)S2)cc1,5.3

# Test system: HUVEC
# Experiment: Cytotoxicity against HUVEC assessed as cell viability after 48 hrs by MTT assay
# Type: cell-based
# Conditions: Homo sapiens
row,SMILES,IC50
1,COc1ccc(/C=C\c2cc(OC)c(OC)c(OC)c2)cc1O [COMBRETASTATIN A4],0.005 µM
2,COc1cccc2c1C(=O)c1c(O)c3c(c(O)c1C2=O)C[C@@](O)(C(=O)CO)C[C@@H]3O[C@H]1C[C@H](N)[C@H](O)[C@H](C)O1 [DOXORUBICIN],0.0807 µM
3,COc1cc([C@@H]2c3cc4c(cc3[C@@H](O[C@@H]3O[C@@H]5CO[C@@H](C)O[C@H]5[C@H](O)[C@H]3O)[C@H]3COC(=O)[C@H]23)OCO4)cc(OC)c1O [ETOPOSIDE],1.25 µM
4,Fc1ccc(NC2=NCc3c([nH]c4ccccc34)S2)cc1,42 µM

# Test system: MDA-MB-231
# Experiment: Potency index, ratio of etoposide IC50 to compound IC50 for human MDA-MB-231 cells
# Type: functional
# Conditions: not given
row,SMILES,Ratio IC50
1,Fc1ccc(NC2=NCc3c([nH]c4ccccc34)S2)cc1,2

# Test system: CCRF-CEM
# Experiment: Selectivity index, ratio of IC50 for HUVEC to IC50 for human CCRF-CEM cells
# Conditions: not given
row,SMILES,Ratio IC50
1,COc1cc([C@@H]2c3cc4c(cc3[C@@H](O[C@@H]3O[C@@H]5CO[C@@H](C)O[C@H]5[C@H](O)[C@H]3O)[C@H]3COC(=O)[C@H]23)OCO4)cc(OC)c1O [ETOPOSIDE],1.14
2,Fc1ccc(NC2=NCc3c([nH]c4ccccc34)S2)cc1,24.7

# Test system: HeLa
# Experiment: Selectivity index, ratio of IC50 for HUVEC to IC50 for human HeLa cells
# Conditions: not given
row,SMILES,Ratio IC50
1,COc1cc([C@@H]2c3cc4c(cc3[C@@H](O[C@@H]3O[C@@H]5CO[C@@H](C)O[C@H]5[C@H](O)[C@H]3O)[C@H]3COC(=O)[C@H]23)OCO4)cc(OC)c1O [ETOPOSIDE],0.32
2,Fc1ccc(NC2=NCc3c([nH]c4ccccc34)S2)cc1,1.9
